The results in this text go back to ChEMBL document CHEMBL3588780, “Quinolyl analogues of norlobelane: novel potent inhibitors of [(3)H]dihydrotetrabenazine binding and [(3)H]dopamine uptake at the vesicular monoamine transporter-2” (Bioorg Med Chem Lett, 2015).

One may read the pKi as −log10 of the Ki, conventionally taken in molar units.

Experiment [1] has as its target Synaptic vesicular amine transporter (Rattus norvegicus) (UniProt Q01827). Nature of the experiment: Displacement of [3H]DTBZ from VMAT2 in rat whole brain relative to quinlobelane. Background: Loss of bound radioactivity is the signal in a displacement assay; it reports binding, not function.
Experiment [2] has as its target T1, Synaptic vesicular amine transporter (Rattus norvegicus, UniProt Q01827). The experiment is described as follows: Displacement of [3H]DTBZ from VMAT2 in rat whole brain by liquid scintillation spectrometry.
Experiment [3] addresses T1, Synaptic vesicular amine transporter. The experiment is described as follows: Inhibition of VMAT2-mediated [3H]DA uptake in rat brain synaptic vesicles by liquid scintillation spectrometry. The experiment is classed as tissue-based.
For experiment [4], the target named is Synaptic vesicular amine transporter (Rattus norvegicus) (UniProt Q01827). Nature of the experiment: Ratio of Ki for displacement of [3H]DTBZ from VMAT2 in rat whole brain to Ki for inhibition of VMAT2-mediated [3H]DA uptake in rat brain synaptic vesicles. The experiment is classed as tissue-based.
Chain of Synaptic vesicular amine transporter (Rattus norvegicus) (Q01827 whole entry): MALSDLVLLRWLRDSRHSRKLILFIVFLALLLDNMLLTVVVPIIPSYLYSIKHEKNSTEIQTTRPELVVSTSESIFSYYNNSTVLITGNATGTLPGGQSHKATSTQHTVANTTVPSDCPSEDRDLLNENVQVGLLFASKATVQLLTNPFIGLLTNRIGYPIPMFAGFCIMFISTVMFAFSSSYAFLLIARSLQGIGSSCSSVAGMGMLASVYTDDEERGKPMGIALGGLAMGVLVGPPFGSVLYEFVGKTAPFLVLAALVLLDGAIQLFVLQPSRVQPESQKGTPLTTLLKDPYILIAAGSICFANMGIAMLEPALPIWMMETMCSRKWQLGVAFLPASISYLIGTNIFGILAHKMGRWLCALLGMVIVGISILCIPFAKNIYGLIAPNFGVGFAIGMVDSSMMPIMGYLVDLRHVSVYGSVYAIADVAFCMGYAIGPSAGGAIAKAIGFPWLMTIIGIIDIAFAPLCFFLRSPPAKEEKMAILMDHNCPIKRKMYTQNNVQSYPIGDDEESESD

pKi: −log10 of the molar value.

T1 sequence (Q01827 whole entry): as above

For the compound `c1cnc2ccc(CC[C@H]3CCC[C@@H](CCc4ccc5ncccc5c4)N3)cc2c1`, the figures for the Ratio Ki in experiment [1] and in experiment [4] were 4 and 3, respectively. Moreover, the pKi in experiment [2] is 6.19; in experiment [3], 7.38.
For `OC[C@H](O)CN1[C@@H](CCc2ccc3ccccc3n2)CCC[C@H]1CCc1ccc2ccccc2n1` the same measures were 4, 3, 6.20 and 6.62.
For the compound `c1ccc2c(CC[C@H]3CCC[C@@H](CCc4ccnc5ccccc45)N3)ccnc2c1`, the results for the pKi in experiment [2] and in experiment [3] were 6.75 and 7.38, respectively.
Take `c1ccc2nc(CC[C@H]3CCC[C@@H](CCc4ccc5ccccc5n4)N3)ccc2c1`: the figures for the Ratio Ki in experiment [1] and in experiment [4] were 9 and 3, respectively. Moreover, the figures for the pKi in experiment [2] and in experiment [3] were 6.53 and 7.24, respectively.
